IC50 data for five compounds are collected here from ChEMBL document CHEMBL1124592, “In vitro metabolic transformations of vinblastine: oxidations catalyzed by human ceruloplasmin” (J Med Chem, 1989).

Converted amounts (≈) assume the structure as drawn.

One may read the IC50 as the point on the concentration scale where inhibition reaches its midpoint.

For this assay, the system named is CCRF-CEM. In words: Inhibition against […]-T-Cell leukemic cell line. It counts as functional, cell-based. As to conditions: Homo sapiens.

For `CCC(=O)CC1CN(C=O)CCc2c([nH]c3ccccc23)[C@@](C(=O)OC)(c2cc3c(cc2OC)N(C)C2C4(C(=O)OC)OC5C=CN6CCC32C6[C@]5(CC)C4OC(C)=O)C1` (stereo not given in full), the IC50 stood at 14 µg/mL (≈ 17 µM).
The figure for `CCC(=O)C[C@@H]1CN(C=O)CCc2c([nH]c3ccccc23)[C@@](C(=O)OC)(c2cc3c(cc2OC)N(C)[C@H]2[C@@](O)(C(=O)OC)[C@H](OC(C)=O)[C@]4(CC)C=CCN5CC[C@]32[C@@H]54)C1` is 7.7 µg/mL (≈ 9.33 µM); for `CC[C@]1(O)C[C@@H]2CN(CCc3c([nH]c4ccccc34)[C@@](C(=O)OC)(c3cc4c(cc3OC)N(C)[C@H]3[C@@](O)(C(=O)OC)[C@H](OC(C)=O)[C@]5(CC)C=CCN6CC[C@]43[C@@H]65)C2)C1` [VINBLASTINE] it is 0.1 µg/mL (≈ 0.123 µM).
The figure for `CC[C@]1(O)C[C@H]2CN(CCc3c([nH]c4ccccc34)[C@@](C(=O)OC)(c3cc4c(cc3OC)N(C=O)[C@H]3[C@@](O)(C(=O)OC)[C@H](OC(C)=O)[C@]5(CC)C=CCN6CC[C@]43[C@@H]65)C2)C1` [VINCRISTINE] is 0.025 µg/mL (≈ 0.0303 µM); for `CC[C@]12CN3CCc4c([nH]c5ccccc45)[C@@](C(=O)OC)(c4cc5c(cc4OC)N(C)[C@H]4[C@@](O)(C(=O)OC)[C@H](OC(C)=O)[C@]6(CC)C=CCN7CC[C@]54[C@@H]76)C[C@@H](C3)[C@H]1O2.CC[C@]12CN3CCc4c([nH]c5ccccc45)[C@@](C(=O)OC)(c4cc5c(cc4OC)N(C)[C@H]4[C@@](O)(C(=O)OC)[C@H](OC(C)=O)[C@]6(CC)C=CCN7CC[C@]54[C@@H]76)C[C@@H](C3)[C@H]1O2.O=S(=O)(O)O` [VINLEUROSINE SULFATE] it is 0.4 µg/mL.
